Data from patent US20230219886A1, “NOVEL SELENO-NSAID ANALOGS AND USES THEREOF” (THE PENN STATE RESEARCH FOUNDATION, priority 2020, published 2023).
Entries after “also recorded” stand apart in the source; their conditions may differ.

Tests used:
[1] = system: NCI-H226 (non-small cell lung cancer); test: NCI-60 one-dose screen, NCI-H226; format: cell-based, human; settings: NCI-H226, 10 μM, 48 h
Source text: (§1) NCI-60 Analysis. 1a and 6a were submitted to National Cancer Institute's (NCI) Developmental Therapeutics Program (DTP) where the cytotoxicity profile was investigated across their 60 human cancer cell line panel according to the protocol available on multiple sources (71-73, 83). The COMPARE algorithm (73), was utilized to evaluate the activity profile of 6a in comparison to those of known cytotoxins established in marketed drugs and standard agent data sets in order to correlate plausible modes of action.
(§2) NCI-60 analysis. Compounds 1a, 5a and 6a were submitted to the National Cancer Institute's (NCI) Developmental Therapeutics Program (DTP). NCI-60 program consists in a panel of 60 human cancer cell lines from a variety of cancers, including refractory tumors such as lung, ovarian, CRC, breast, brain and renal cancers, and melanomas together with more treatable cancers such as leukemias (71). 1a [NSC: 803071], 5a [NSC: 820332] and 6a [NSC: 811013] were initially screened at one dose (10 μM) at 48 h. Then, NCI selected only compound 6a to perform dose-response characterization (72).

LC: HOP-62 = test: NCI-60 dose-response, HOP-62; format: cell-based, human; settings: HOP-62, 48 h
Source text: as §1, §2

[2] = system: NCI-60 human cancer cell line panel; test: NCI-60 dose-response, whole panel; format: cell-based
Source text: as §1, §2

OV: OVCAR-5 = test: NCI-60 dose-response, OVCAR-5; format: cell-based, human; settings: OVCAR-5, most resistant cell line
Source text: as §1, §2

[3] = Systemic toxicity in xenograft mice; format: in vivo
Protocol: (§3) The cytotoxic response of 6a on pancreatic ductal adenocarcinoma cell lines (Panc-1, MIA PaCa-2 and BxPC3) was evaluated using MTT assay. […] To determine whether the in vitro efficacy of 6a translates to in vivo models, we performed a pilot tumor inhibition study in xenograft mouse model using BxPC3 cells. Athymic nude mice were subcutaneously injected with BxPC3 cells. After two weeks, mice were injected intraperitoneally with vehicle DMSO (control) or 6a (three times a week at a dose of 4 mg/Kg in 100 μL of DMSO). Tumor size and animal weights were measured twice a week.

BxPC3 cells [4] = test: Subcutaneous xenograft tumor inhibition study in athymic nude mice; format: in vivo
Protocol: as §3

BxPC3 cells [5] = test: MTT assay, pancreatic ductal adenocarcinoma cells BxPC3; format: cell-based
Protocol: as §3

CNS: SF-539 = test: NCI-60 dose-response, SF-539; format: cell-based, human; settings: SF-539, 48 h
Source text: as §1, §2

[6] = read-out: LC50 (the source's name)
[7] = 4 mg/Kg i.p. three times a week

C[Se]C(=O)c1ccccc1OC(C)=O [Compound 1a, 2-((methylselanyl)carbonyl)phenyl acetate]
Growth percent (GP) [1]: < 12%

C[Se]C(=O)CC1=C(C)/C(=C/c2ccc([S+](C)[O-])cc2)c2ccc(F)cc21 (stereo not shown) [Compound 6a, Se-methyl (Z)-2-(5-fluoro-2-methyl-1-(4-(methylsulfinyl)benzylidene)-1H-indenyl)ethaneselenoate]
GI50 (LC: HOP-62): < 10 nM
LC50 (LC: HOP-62): 941 nM
TGI (LC: HOP-62): 155 nM
cytotoxic activity towards the 6 most sensitive cells of the panel ([2]; LE:SR, CCRF-CEM, HCT-116, HL60, NCI-H522, MOLT-4): negligible
activity towards the 6 most resistant cells ([2]; TK10, SK-MEL-28, SNB-19, SK-OV-3, NCI-H322M, OVCAR-5): outstanding activity
TGI values ([2]; in all cell lines, except for seven): below 12 μM
GI50 ([2]; in four NSCLS and two CNS cell lines): < 10 nM
GI50 (OV: OVCAR-5): 47 nM
TGI (OV: OVCAR-5): 410 nM
CC50 (OV: OVCAR-5; [6]): 3900 nM
alanine aminotransferase (SGPT) [3, 7]: 19 U/L
bilirubin toxicity [3, 7]: 0.40 mg/dL
blood urea nitrogen [3, 7]: 23 mg/dL
body weight loss as compared to the control mice [3, 7]: did not show any significant weight loss
systemic toxicity ([3]; at the dose used (4 mg/Kg)): no evidence of systemic toxicity
reduction of tumor weight as compared to control mice (BxPC3 cells [4]; 4 mg/Kg i.p. three times a week, 22 days since start of treatment): 42.9%
tumor growth (BxPC3 cells [4]; 4 mg/Kg i.p., three times a week, nude mice xenograft): significantly inhibited; also recorded: significantly reduced
IC50 (BxPC3 cells [5]): 1000 nM
GI50 (CNS: SF-539): 105 nM
TGI (CNS: SF-539): 275 nM
CC50 (CNS: SF-539; [6]): 718 nM
